The source of these data is patent US20130217664A1, “NOVEL COMPOUNDS USEFUL FOR THE TREATMENT OF DEGENERATIVE AND INFLAMMATORY DISEASES” (priority 2012, published 2013).

Experiment [1] concerns the target T1, human TYK2 (Homo sapiens, UniProt P29597).
T1 construct: catalytic domain (amino acids 871-1187; catalog number 08-147); purchased Carna Biosciences 08-147
T1 sequence (P29597 871-1187): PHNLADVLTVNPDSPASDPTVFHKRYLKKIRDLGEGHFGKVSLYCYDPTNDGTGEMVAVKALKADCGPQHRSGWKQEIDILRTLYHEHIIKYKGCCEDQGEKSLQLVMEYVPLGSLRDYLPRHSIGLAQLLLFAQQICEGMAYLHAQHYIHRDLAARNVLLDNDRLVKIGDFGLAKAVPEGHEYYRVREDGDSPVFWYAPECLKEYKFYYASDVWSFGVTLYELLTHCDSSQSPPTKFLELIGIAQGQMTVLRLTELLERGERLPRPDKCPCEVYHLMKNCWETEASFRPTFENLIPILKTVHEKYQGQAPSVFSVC
Kind of experiment: TYK2 inhibition assay. Type of experiment: biochemical. The settings on record: recombinant human TYK2 catalytic domain, polyGT substrate. The gist of the method: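 Radiometric kinase reaction run 90 min at 30 °C, stopped with phosphoric acid, washed and scintillation-counted.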

For experiment [2], the target named is T2, human JAK2 (Homo sapiens, UniProt O60674).
T2 construct: catalytic domain (amino acids 808-1132; catalog number PV4210); GST; purchased Invitrogen PV4210
T2 sequence (O60674 808-1132): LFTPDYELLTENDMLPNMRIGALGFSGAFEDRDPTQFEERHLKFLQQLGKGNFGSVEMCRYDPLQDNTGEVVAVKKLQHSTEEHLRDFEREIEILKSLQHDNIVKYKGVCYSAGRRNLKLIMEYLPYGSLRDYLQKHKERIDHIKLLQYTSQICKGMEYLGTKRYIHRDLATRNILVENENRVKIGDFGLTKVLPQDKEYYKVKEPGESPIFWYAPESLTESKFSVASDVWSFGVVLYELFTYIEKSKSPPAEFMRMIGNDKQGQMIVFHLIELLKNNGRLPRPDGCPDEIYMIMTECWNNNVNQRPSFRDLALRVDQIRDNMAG
Kind of experiment: JAK2 inhibition assay (polyGT substrate / Ulight-JAK1 peptide). It counts as biochemical. Conditions: recombinant human JAK2 catalytic domain; polyGT or Ulight-JAK1 peptide assay. The method, boiled down: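 Two JAK2 formats: a ^33P-ATP polyGT assay (1 μM cold ATP, 90 min, 30° C., cpm read-out) and a Ulight-JAK1 peptide assay read by Europium-anti-phosphotyrosine fluorescence after 60 min at room temperature.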

As to `CN(c1ccc(O)cc1)c1cc2c(cn1)ncn2C` [Compound 17, 4-(methyl(1-methyl-1H-imidazo[4,5-c]pyridin-6-yl)amino)phenol], the IC50 was in the range of 101 to 500 nM in experiment [1] and 501 to 1000 nM in experiment [2].
In the same order, the values of `CN(c1ccc(CC#N)cc1)c1cc2c(cn1)ncn2C` [Compound 26, 2-(4-(Methyl(1-methyl-1H-imidazo[4,5-c]pyridin-6-yl)amino)phenyl)acetonitrile] are 101 to 500 nM and 101 to 500 nM.
Regarding `COC(=O)c1ccc(N(C)c2cc3c(cn2)ncn3C)c(C)c1` [Compound 27, Methyl 3-methyl-4-(methyl(1-methyl-1H-imidazo[4,5-c]pyridin-6-yl)amino)benzoate], the IC50 in experiment [1] and in experiment [2] was above 1000 nM each time.
In the case of `CCc1cc(F)ccc1N(C)c1cc2c(cn1)ncn2C` [Compound 28, N-(2-Ethyl-4-fluorophenyl)-N,1-dimethyl-1H-imidazo[4,5-c]pyridin-6-amine], the results for the IC50 in experiment [1] and in experiment [2] were 101 to 500 nM and 501 to 1000 nM, respectively.
As to `Cc1cc(CO)ccc1N(C)c1cc2c(cn1)ncn2C` [Compound 29, (3-Methyl-4-(methyl(1-methyl-1H-imidazo[4,5-c]pyridin-6-yl)amino)phenyl) MeOH], the 50% inhibitory concentration (IC50) in experiment [1] was 501 to 1000 nM; in experiment [2], above 1000 nM.
In the case of `CNC(=O)c1ccc(N(C)c2cc3c(cn2)ncn3C)c(C)c1` [Compound 30, N,3-Dimethyl-4-(methyl(1-methyl-1H-imidazo[4,5-c]pyridin-6-yl)amino)-benzamide], the IC50 in experiment [1] and in experiment [2] was above 1000 nM each time.
Turning to `Cc1cc(C#N)ccc1N(C)c1cc2c(cn1)ncn2C` [Compound 31, 3-Methyl-4-(methyl(1-methyl-1H-imidazo[4,5-c]pyridin-6-yl)amino)benzonitrile], the IC50 in experiment [1] was 501 to 1000 nM; in experiment [2], above 1000 nM.
For `Cc1cc(C(N)=O)ccc1N(C)c1cc2c(cn1)ncn2C` [Compound 32, 3-Methyl-4-(methyl(1-methyl-1H-imidazo[4,5-c]pyridin-6-yl)amino)benzamide], the IC50 in experiment [1] and in experiment [2] was above 1000 nM throughout.
On to `COc1ccc(COc2ccc(N(C)c3cc4c(cn3)ncn4C)c(C)c2)cc1` [Compound 33, N-(4-(4-Methoxybenzyloxy)-2-methylphenyl)-N,1-dimethyl-1H-imidazo[4,5-c]pyridin-6-amine], for which the IC50 in experiment [1] and in experiment [2] was above 1000 nM in each case.
For `CCc1ccccc1N(CC)c1cc2c(cn1)ncn2C` [Compound 34, N-Ethyl-N-(2-ethylphenyl)-1-methyl-1H-imidazo[4,5-c]pyridin-6-amine], the IC50 fell in the range of 0.01 to 100 nM in experiment [1] and 501 to 1000 nM in experiment [2].
As to `CCc1ccccc1N(CC1CC1)c1cc2c(cn1)ncn2C` [Compound 35, N-(cyclopropylmethyl)-N-(2-ethylphenyl)-1-methyl-1H-imidazo[4,5-c]pyridin-6-amine], the IC50 in experiment [1] was 101 to 500 nM; in experiment [2], above 1000 nM.
As to `Cc1cc(O)ccc1N(C)c1cc2c(cn1)ncn2C` [Compound 38, 3-Methyl-4-(methyl(1-methyl-1H-imidazo[4,5-c]pyridin-6-yl)amino)phenol], the IC50 in experiment [1] was 101 to 500 nM; in experiment [2], above 1000 nM.
As to `CN(c1cc2c(cn1)ncn2C)c1ccccc1OC(F)F` [Compound 39, N-(2-(difluoromethoxy)phenyl)-N,1-dimethyl-1H-imidazo[4,5-c]pyridin-6-amine], the IC50 in experiment [1] and in experiment [2] was 501 to 1000 nM throughout.
As for `COc1ccc(COc2ccc(C)c(N(C)c3cc4c(cn3)ncn4C)c2)cc1` [Compound 43, N-(5-(4-methoxybenzyloxy)-2-methylphenyl)-N,1-dimethyl-1H-imidazo[4,5-c]pyridin-6-amine], the IC50 in experiment [1] and in experiment [2] was above 1000 nM each time.
For the compound `Cc1cc(OCC#N)ccc1N(C)c1cc2c(cn1)ncn2C` [Compound 47, 2-(3-methyl-4-(methyl(1-methyl-1H-imidazo[4,5-c]pyridin-6-yl)amino)phenoxy)acetoni-trile], the IC50 in experiment [1] and in experiment [2] was 101 to 500 nM each time.
Consider `Cc1cc(OCCCC#N)ccc1N(C)c1cc2c(cn1)ncn2C` [Compound 48, 4-(3-methyl-4-(methyl(1-methyl-1H-imidazo[4,5-c]pyridin-6-yl)amino)phenoxy)butane nitrile], for which the values for the IC50 in experiment [1] and in experiment [2] were 501 to 1000 nM and above 1000 nM, respectively.
Regarding `Cc1ccc(OCc2ccccc2)cc1N(C)c1cc2c(cn1)ncn2C` [Compound 56, N-(5-(benzyloxy)-2-methylphenyl)-N,1-dimethyl-1H-imidazo[4,5-c]pyridin-6-amine], the IC50 in experiment [1] and in experiment [2] was above 1000 nM in each case.
For `Cc1ccc(OCC#N)cc1N(C)c1cc2c(cn1)ncn2C` [Compound 57, 2-(4-methyl-3-(methyl(1-methyl-1H-imidazo[4,5-c]pyridin-6-yl)amino)phenoxy)acetoni-trile], the figures for the IC50 in experiment [1] and in experiment [2] were 501 to 1000 nM and 101 to 500 nM, respectively.
The corresponding values for `Cc1ccc(OCCCC#N)cc1N(C)c1cc2c(cn1)ncn2C` [Compound 60, 4-(4-methyl-3-(methyl(1-methyl-1H-imidazo[4,5-c]pyridin-6-yl)amino)phenoxy)butane nitrile] are 501 to 1000 nM and above 1000 nM.
The corresponding values for `Cc1ccc(OCc2cccnc2)cc1N(C)c1cc2c(cn1)ncn2C` [Compound 61, N,1-dimethyl-N-(2-methyl-5-(pyridin-3-ylmethoxy)phenyl)-1H-imidazo[4,5-c]pyridin-6-amine] are above 1000 nM and above 1000 nM.
Take `Cc1ccc(OCc2ccc(Cl)cc2)cc1N(C)c1cc2c(cn1)ncn2C` [Compound 62, N-(5-(4-chlorobenzyloxy)-2-methylphenyl)-N,1-dimethyl-1H-imidazo[4,5-c]pyridin-6-amine]: the IC50 in experiment [1] and in experiment [2] was above 1000 nM each time.
With `Cc1ccc(OCC(C)C)cc1N(C)c1cc2c(cn1)ncn2C` [Compound 63, N-(5-isobutoxy-2-methylphenyl)-N,1-dimethyl-1H-imidazo[4,5-c]pyridin-6-amine], the IC50 in experiment [1] and in experiment [2] was above 1000 nM each time.
Take `Cc1c(OCC#N)cccc1N(C)c1cc2c(cn1)ncn2C` [Compound 64, 2-(2-methyl-3-(methyl(1-methyl-1H-imidazo[4,5-c]pyridin-6-yl)amino)phenoxy)acetoni-trile]: the IC50 in experiment [1] and in experiment [2] was 101 to 500 nM in each case.
Turning to `Cc1cc(-c2cn[nH]c2)ccc1N(C)c1cc2c(cn1)ncn2C` [Compound 71, N,1-Dimethyl-N-(2-methyl-4-(1H-pyrazol-4-yl)phenyl)-1H-imidazo[4,5-c]pyridin-6-amine], the figures for the IC50 in experiment [1] and in experiment [2] were 0.01 to 100 nM and 101 to 500 nM, respectively.
For the compound `Cc1cc(-c2cncnc2)ccc1N(C)c1cc2c(cn1)ncn2C` [Compound 72, N,1-dimethyl-N-(2-methyl-4-(pyrimidin-5-yl)phenyl)-1H-imidazo[4,5-c]pyridin-6-amine], the IC50 is 501 to 1000 nM in experiment [1] and above 1000 nM in experiment [2].
In the same order, the values of `Cc1cc(-c2cnn(C)c2)ccc1N(C)c1cc2c(cn1)ncn2C` [Compound 73, N,1-dimethyl-N-(2-methyl-4-(1-methyl-1H-pyrazol-4-yl)phenyl)-1H-imidazo[4,5-c]pyridin-6-amine] are 101 to 500 nM and 501 to 1000 nM.
As to `CCc1cc(C(=O)OC)ccc1N(C)c1cc2c(cn1)ncn2C` [Compound 80, Methyl 3-ethyl-4-(methyl(1-methyl-1H-imidazo[4,5-c]pyridin-6-yl)amino)benzoate], the IC50 in experiment [1] and in experiment [2] was 101 to 500 nM each time.
Regarding `CCc1ccc(C#N)cc1N(C)c1cc2c(cn1)ncn2C` [Compound 83, 4-ethyl-3-(methyl(1-methyl-1H-imidazo[4,5-c]pyridin-6-yl)amino)benzonitrile], the IC50 in experiment [1] and in experiment [2] was 101 to 500 nM in each case.
Regarding `CCc1ccc(F)cc1N(C)c1cc2c(cn1)ncn2C` [Compound 84, N-(2-ethyl-5-fluorophenyl)-N,1-dimethyl-1H-imidazo[4,5-c]pyridin-6-amine], the IC50 in experiment [1] and in experiment [2] was 101 to 500 nM throughout.
Regarding `CCc1cc(C(=O)NC)ccc1N(C)c1cc2c(cn1)ncn2C` [Compound 85], the figures for the IC50 in experiment [1] and in experiment [2] were 101 to 500 nM and 501 to 1000 nM, respectively.
In the case of `CCc1cc(C(=O)NCCC#N)ccc1N(C)c1cc2c(cn1)ncn2C` [Compound 86, N-(2-Cyanoethyl)-3-ethyl-4-(methyl(1-methyl-1H-imidazo[4,5-c]pyridin-6-yl)amino)benzamide], the IC50 in experiment [1] and in experiment [2] was 501 to 1000 nM each time.
With `Cc1ccc(Oc2ccc(C#N)nc2)cc1N(C)c1cc2c(cn1)ncn2C` [Compound 91, 5-(4-methyl-3-(methyl(1-methyl-1H-imidazo[4,5-c]pyridin-6-yl)amino)phenoxy)picolino-nitrile], the IC50 in experiment [1] and in experiment [2] was above 1000 nM in each case.
In the case of `CCc1cc(-c2cccnc2)ccc1N(C)c1cc2c(cn1)ncn2C` [Compound 94, N-(2-ethyl-4-(pyridin-3-yl)phenyl)-N,1-dimethyl-1H-imidazo[4,5-c]pyridin-6-amine], the figures for the IC50 in experiment [1] and in experiment [2] were 0.01 to 100 nM and 101 to 500 nM, respectively.

Usually IC50 stands for the concentration needed to halve the response being measured.
